Measurements as given in US20250221960A1, “COMPOSITIONS AND METHODS FOR THE TREATMENT OF DEPRESSION” (Janssen Pharmaceuticals, Inc., priority 2022, published 2025).

How the values were obtained:
subjects with MDD [1] = assay: SHAPS total score (anhedonia), Example 1; assay type: in vivo, human; details: for SHAPS Total Score Change from Baseline LSMean (SE), MMRM / SHAPS Total Score Effect Size vs placebo / SHAPS Total Score LSMean Difference (SE) Treatment - Placebo, MMRM: 10 mg
Description: To assess a potential effect on anhedonia, an anhedonia scale may be used. For example, the Snaith-Hamilton Pleasure Scale (SHAPS) analysis is a validated scale for the measurement of anhedonia. The SHAPS is a subject completed scale in which subjects score whether or not they experience pleasure in performing a list of activities or experiences. The SHAPS is a self-reported 14-item instrument, developed for the assessment of hedonic capacity. Subjects score whether they experience pleasure in performing a list of activities or experiences. Subjects can rate the answers as 1-4 where 1 indicates “Definitely agree”, 2 indicates “Agree”, 3 indicates “Disagree” and 4 indicates “Definitely disagree”. The subject's item responses are summed to provide a total score ranging from 14 to 56. A higher total SHAPS score indicates higher levels of current anhedonia. Physician/clinical judgment can be used to assess anhedonia separately or in conjunction with an anhedonia scale.
In some embodiments, the patient has anhedonia. In some embodiments, the patient has moderate anhedonia. In other embodiments, the patient has severe anhedonia. An assessment of moderate or severe anhedonia is typically determined physician/clinical judgment and/or by one or more tests that provide insight into whether a patient has anhedonia. For example, the severity of the anhedonia may be determined using the SHAPS method. In some embodiments, a patient with moderate or severe anhedonia is considered to have a high level of anhedonia. For example, a patient with a SHAPS score of 38 or greater is considered to have moderate to severe anhedonia that can be considered a high level of anhedonia. In some embodiments, a high level of anhedonia is reflected by a SHAPS score of at least about 40, about 42, about 44, about 46, about 48, about 50, about 52, about 54, about 56, about 58, or higher. A patient with mild or no anhedonia would be considered to have a low level of anhedonia that is assessed by physician/clinical judgment and/or one or more tests. For example, a patient with a SHAPS score of less than 38 is considered to have low anhedonia. In certain embodiments, a patient with mild anhedonia may have a SHAPS score of 20 to less than 38, for example, a SHAPS score of 20 to about 36, about 22 to about 36, about 24 to about 36, about 26 to about 36, about 26 to about 34, about 26 to about 32, about 26 to about 30, about 26 to about 28, about 28 to about 36, about 28 to about 36, about 30, to about 36, about 32 to about 36, about 34 to about 36, about 20 to about 34, about 22 to about 34, about 24 to about 34, about 26 to about 32, about 26 to about 30, about 26 to about 28, about 28 to about 36, about 28 to about 34, about 28 to about 32, about 28 to about 30, about 30 to about 36, about 30 to about 34, about 30 to about 32, about 32 to about 36, about 32 to about 34, or about 34 to about 36. Typically, a SHAPS score of less than 20 can be considered to correspond to normal hedonic functioning, and for purposes of this disclosure, would fall into the low category of anhedonia, e.g., a SHAPS score of less than 38.
iii. To investigate the effect of aticaprant versus placebo on depression related anhedonia as assessed by the SHAPS.
The treatment phase consisted of 3 periods. […] There were 11 scheduled visits, including screening.

subjects with MDD [2] = assay: ASEX sexual functioning, Example 1; assay type: in vivo, human
Description: As used herein, the term “decrease in sexual functioning” refers to reducing or lessening of one or more components of the human sex drive, i.e., sexual functioning. In some embodiments, the sexual functioning comprises one or more of sexual drive, sexual arousal, vaginal lubrication, erection, orgasm achievement, or orgasm satisfaction. In other embodiments, the sexual functioning comprises sexual drive. In further embodiments, the sexual functioning comprises vaginal lubrication satisfaction. In further embodiments, the sexual functioning comprises orgasm achievement. In yet other embodiments, the sexual functioning comprises orgasm satisfaction. Desirably, the patient's sexual functioning is assessed at the time of initial administration of the aticaprant. Thus, the patient's sexual functioning while taking aticaprant can be compared to the patient's sexual functioning before administration of aticaprant. Sexual functioning may be assessed by using standard scales and techniques such as the Arizona Sexual Experience Scale (ASEX). The ASEX is used to investigate whether aticaprant has a further positive or negative effect on sexual function. The ASEX is 5 item rating scale administered to patients that quantifies sexual drive, sexual arousal, vaginal lubrication or penile erection, ability to reach orgasm and satisfaction. Scores range from 5 to 30, and two different versions of the scale are available (males and females).
Patients had their sexual functioning measured using a standard, well accepted rating scale: ASEX. See, Table 32.

SMILES: Cc1cc(C)cc(C2CCCN2Cc2ccc(Oc3ccc(C(N)=O)cc3F)cc2)c1 (centres unmarked) [aticaprant, 3-fluoro-4-4-2-(3,5-dimethylphenyl) pyrrolidin-1-yl-methylphenoxybenzamide]
- Frequency of Subjects: High Level of Anhedonia (SHAPS Total Score >= 38) (subjects with MDD [1]; Treatment Week 6, eITT, N = 59): 8 (13.56%)
- Frequency of Subjects: Low Level of Anhedonia (20 <= SHAPS Total Score < 38) (subjects with MDD [1]; Treatment Week 6, eITT, N = 59): 48 (81.36%)
- Frequency of Subjects: No Anhedonia (SHAPS Total Score < 20) (subjects with MDD [1]; Treatment Week 6, eITT, N = 59): 3 (5.08%)
- Frequency of Subjects: High Level of Anhedonia (SHAPS Total Score >= 38) (subjects with MDD [1]; Treatment Week 6, fITT, N = 77): 8 (10.39%)
- Frequency of Subjects: Low Level of Anhedonia (20 <= SHAPS Total Score < 38) (subjects with MDD [1]; Treatment Week 6, fITT, N = 77): 62 (80.52%)
- Frequency of Subjects: No Anhedonia (SHAPS Total Score < 20) (subjects with MDD [1]; Treatment Week 6, fITT, N = 77): 7 (9.09%)
- SHAPS Total Score Change from Baseline LSMean (SE), MMRM (subjects with MDD [1]; eITT, Treatment Week 1): −1.7
- SHAPS Total Score Effect Size vs placebo (subjects with MDD [1]; eITT, Treatment Week 1): −0.15
- SHAPS Total Score LSMean Difference (SE) Treatment - Placebo, MMRM (subjects with MDD [1]; eITT, Treatment Week 1): −0.8
- SHAPS Total Score Change from Baseline LSMean (SE), MMRM (subjects with MDD [1]; eITT, Treatment Week 3): −3.2
- SHAPS Total Score Effect Size vs placebo (subjects with MDD [1]; eITT, Treatment Week 3): −0.25
- SHAPS Total Score LSMean Difference (SE) Treatment - Placebo, MMRM (subjects with MDD [1]; eITT, Treatment Week 3): −1.4
- SHAPS Total Score Change from Baseline LSMean (SE), MMRM (subjects with MDD [1]; eITT, Treatment Week 4): −4.3
- SHAPS Total Score Effect Size vs placebo (subjects with MDD [1]; eITT, Treatment Week 4): −0.23
- SHAPS Total Score LSMean Difference (SE) Treatment - Placebo, MMRM (subjects with MDD [1]; eITT, Treatment Week 4): −1.4
- SHAPS Total Score Change from Baseline LSMean (SE), MMRM (subjects with MDD [1]; eITT, Treatment Week 5): −4.0
- SHAPS Total Score Effect Size vs placebo (subjects with MDD [1]; eITT, Treatment Week 5): −0.08
- SHAPS Total Score LSMean Difference (SE) Treatment - Placebo, MMRM (subjects with MDD [1]; eITT, Treatment Week 5): −0.5
- SHAPS Total Score Change from Baseline LSMean (SE), MMRM (subjects with MDD [1]; eITT, Treatment Week 6): −4.4
- SHAPS Total Score LSMean Difference (SE) Treatment - Placebo, MMRM (subjects with MDD [1]; eITT, Treatment Week 6): −0.7
- SHAPS Total Score Change from Baseline LSMean (SE), MMRM (subjects with MDD [1]; fITT, Treatment Week 1): −1.9
- SHAPS Total Score Effect Size vs placebo (subjects with MDD [1]; fITT, Treatment Week 1): −0.15
- SHAPS Total Score LSMean Difference (SE) Treatment - Placebo, MMRM (subjects with MDD [1]; fITT, Treatment Week 1): −1.0
- SHAPS Total Score Change from Baseline LSMean (SE), MMRM (subjects with MDD [1]; fITT, Treatment Week 3): −3.1
- SHAPS Total Score Effect Size vs placebo (subjects with MDD [1]; fITT, Treatment Week 3): −0.20
- SHAPS Total Score LSMean Difference (SE) Treatment - Placebo, MMRM (subjects with MDD [1]; fITT, Treatment Week 3): −1.4
- SHAPS Total Score Change from Baseline LSMean (SE), MMRM (subjects with MDD [1]; fITT, Treatment Week 4): −4.1
- SHAPS Total Score Effect Size vs placebo (subjects with MDD [1]; fITT, Treatment Week 4): −0.23
- SHAPS Total Score LSMean Difference (SE) Treatment - Placebo, MMRM (subjects with MDD [1]; fITT, Treatment Week 4): −1.6
- SHAPS Total Score Change from Baseline LSMean (SE), MMRM (subjects with MDD [1]; fITT, Treatment Week 5): −4.1
- SHAPS Total Score Effect Size vs placebo (subjects with MDD [1]; fITT, Treatment Week 5): −0.09
- SHAPS Total Score LSMean Difference (SE) Treatment - Placebo, MMRM (subjects with MDD [1]; fITT, Treatment Week 5): −0.8
- SHAPS Total Score Change from Baseline LSMean (SE), MMRM (subjects with MDD [1]; fITT, Treatment Week 6): −4.5
- SHAPS Total Score LSMean Difference (SE) Treatment - Placebo, MMRM (subjects with MDD [1]; fITT, Treatment Week 6): −0.8
- ASEX score: Relative % Change (subjects with MDD [2]; Endpoint vs Baseline, n = 85): −6.91%
- ASEX score: Absolute Change (subjects with MDD [2]; Endpoint vs Baseline, n = 85, lower score indicates improvement): −1.47
- sexual functioning during treatment (subjects with MDD [2]; based on assessment at time of initial administration): does not experience a decrease in sexual functioning
- mean change from treatment baseline (SD) in ASEX total score (subjects with MDD [2]; to week 6): -1.5 (4.02) points
